Reference: patent US9089586B2, “Levocarrimycin, pharmaceutical compositions, preparation methods and uses thereof” (SHENYANG TONGLIAN GROUP CO., LTD., priority 2010, dated 2015)
Converted amounts (≈) assume the structure as drawn.

Legend:
[1] = system: Streptococcus pneumonia57; assay: MIC against the infecting test organism (Table 3); format: cell-based, Streptococcus pneumonia
[2] = system: Streptococcus pyogenes772; assay: MIC against the infecting test organism (Table 3); format: cell-based, Streptococcus pyogenes
Streptococcus pneumonia3 = assay: MIC against the infecting test organism (Table 3); format: cell-based, Streptococcus pneumonia
[3] = system: Streptococcus pyogenes102; assay: MIC against the infecting test organism (Table 3); format: cell-based, Streptococcus pyogenes
[4] = system: chlamydia pneumoniae CWL-029; assay: In vitro anti-chlamydia MIC, HEp-2 cells, immunofluorescent staining of inclusions; format: cell-based; conditions: Chlamydia pneumoniae CWL-029 in HEp-2 cells, 72 h
Gonococcus (10) = assay: In vitro pharmacodynamics, clinical isolates, two-fold plate dilution; format: cell-based; conditions: 10 clinical isolates of Gonococcus
[5] = system: Streptococcus pyogenes119; assay: MIC against the infecting test organism (Table 3); format: cell-based, Streptococcus pyogenes
Staphylococcus aureus16 [6] = assay: MIC against the infecting test organism (Table 4); format: cell-based, Staphylococcus aureus
Enterococcus32 = assay: MIC against the infecting test organism (Table 4); format: cell-based, Enterococcus
[7] = system: chlamydia trachomatis serotype B/TW-5/OT; assay: In vitro anti-chlamydia MIC, McCoy cells, immunofluorescent staining of inclusions; format: cell-based; conditions: Chlamydia trachomatis B/TW-5/OT in McCoy cells, 48 h
[8] = system: urea plasma urealyticum (Uu); assay: In vitro anti-urea plasma urealyticum MIC in U-PPLO; format: cell-based
Description: 1. Test method: add U-PPLO 0.8 ml in sterile 12-pore cell culture plate (add 0.9 ml in bacteria liquid control pore and 1.0 ml in culture medium control pores).
3. Divide into 3 groups (100 μg/ml, 10 μg/ml and 1 μg/ml antibiotic stocksolution), Add experimental antibiotics (levocarrimycin in example 6 of the present invention, acetyl spiramycin, erythrocin and azithromycin) in each experimental pores with sterile Tip according to double degradation concentration gradient: 100 μl, 50 μl, 25 μl and 12.5 μl.
4. Blend the above pores evenly, seal the culture plate with an adhesive tape and then culture in 37° C. incubator.
5. Abserve and record the growth of Uu on 17-24 h after the test.

[9] = system: chlamydia trachomatis serotype D/UW-3/Cx; assay: In vitro anti-chlamydia MIC, McCoy cells, immunofluorescent staining of inclusions; format: cell-based; conditions: Chlamydia trachomatis D/UW-3/Cx in McCoy cells, 48 h
Staphylococcus aureus76 = assay: MIC against the infecting test organism (Table 4); format: cell-based, Staphylococcus aureus
[10] = system: Streptococcus pyogenes119; assay: In vivo pharmacodynamic: mice abdominal cavity infected, half protective dose; conditions: 168 h; mice infected with Streptococcus pyogenes119, challenging dose 4.9 × 10^4 CFU/0.5 ml/mouse, intragastric administration, fatality within seven days
Description: (§1) Test method: infectious bacteria liquid preparation: put the bacteria liquid stored in the −80° C. refrigerator into the room for about 1 h at room temperature, and respectively draw 0.1 ml bacteria liquid of streptococcus pneumonia, streptococcus pyogenes and enterococcus into 2 ml MH soup (add 10% inactivated horse serum); inoculate the 2 ml MH soup with 0.1 ml bacteria liquid of staphylococcus aureus according to the above method, place the liquid into 37° C. incubator for 18 h to get the original bacteria liquid, dilute the original bacteria liquid with 5% gastric mucin, take 100% lethal bacteria amount if animal gets infected as infectious bacteria liquid.
(§2) Oral administration is planned for clinical medication of levocarrimycin, thus intragastric administration is selected for levocarrimycin test. After intraperitoneal injection of 0.5 ml lethal bacterial amount to the mice' abdominal cavity, the mice appear following symptom, such as reduced activity, repose, hair became loose, and so on. Clyster with 0.2 ml for every mouse after infection 0.5-6 h, there is no adverse reaction. Observe animal fatality within seven days and calculate the half protective dose (EDO of drugs for infected mice and compare the protective effect of drugs througe Bliss order.

Staphylococcus aureus16 [11] = assay: as above; conditions: 168 h; mice infected with Staphylococcus aureus16, challenging dose 5.2 × 10^3 CFU/0.5 ml/mouse, intragastric administration, fatality within seven days
Description: as §1, §2

Staphylococcus aureus12 = assay: as above; conditions: 168 h; mice infected with Staphylococcus aureus12, challenging dose 4.8 × 10^4 CFU/0.5 ml/mouse, intragastric administration, fatality within seven days
Description: as §1, §2

[12] = system: Streptococcus pneumonia57; assay: as above; conditions: 168 h; mice infected with Streptococcus pneumonia57, challenging dose 8.8 × 10^4 CFU/0.5 ml/mouse, intragastric administration, fatality within seven days
Description: as §1, §2

Row | Compound | MIC [1] [µg/mL] | MIC [2] [µg/mL] | MIC (Streptococcus pneumonia3) [µg/mL] | MIC [3] [µg/mL] | Minimal inhibitory concentration (MIC) [4] [µg/mL] | MIC scope (Gonococcus (10)) [µg/mL] | MIC [5] [µg/mL] | MIC (Staphylococcus aureus16 [6]) [µg/mL] | MIC (Enterococcus32) [µg/mL] | Minimal inhibitory concentration (MIC) [7] [µg/mL] | MIC of anti-urea plasma urealyticum strains ([8]; final MIC (24 h), determined 4 times, 10^3 CCU/ml) [µg/mL] | Minimal inhibitory concentration (MIC) [9] [µg/mL] | MIC (Staphylococcus aureus76) [µg/mL] | ED50 [10] [mg/kg] | ED50 (Staphylococcus aureus16 [11]) [mg/kg] | ED50 (Staphylococcus aureus12) [mg/kg] | ED50 [12] [mg/kg] | MIC (Gonococcus (10)) [µg/mL] | MIC ([8]; final MIC (24 h), determined 4 times, 10^3 CCU/ml, read-out: MIC of anti-urea plasma urealyticum strains) [µg/mL] | anti-Uu function ([8]; verbal comparison of the four antibiotics)
1 | Acetyl spiramycin | 1 | 0.25 | 0.5 | 0.5 | 0.5 | 0.12 to 64 | 0.5 | 1 | 1 | 4 | 0.5 | 2 | 1 | – | – | – | – | – | – | –
2 | CC[C@H]1OC(=O)[C@H](C)[C@@H](O[C@H]2C[C@@](C)(OC)[C@@H](O)[C@H](C)O2)[C@H](C)[C@@H](O[C@@H]2O[C@H](C)C[C@H](N(C)C)[C@H]2O)[C@](C)(O)C[C@@H](C)CN(C)[C@H](C)[C@@H](O)[C@]1(C)O [Azithromycin] | – | – | – | – | – | – | – | – | – | – | – | – | – | 99 | 75.8 | 217 | 19.7 | 0.12 to 64 (≈ 0.16 to 85.4 µM) | 0.025 to 0.125 | –
3 | CC[C@H]1OC(=O)[C@H](C)[C@@H](O[C@H]2C[C@@](C)(OC)[C@@H](O)[C@H](C)O2)[C@H](C)[C@@H](O[C@@H]2O[C@H](C)C[C@H](N(C)C)[C@H]2O)[C@](C)(O)C[C@@H](C)C(=O)[C@H](C)[C@@H](O)[C@]1(C)O [Erythrocin] | – | – | – | – | – | – | – | – | – | – | – | – | – | – | – | – | – | 0.12 to 64 (≈ 0.164 to 87.2 µM) | – | the worst
